From patent US20210380548A1, “Fused [1,2,4]Thiadiazine Derivatives Which Act as KAT Inhibitors of the MYST Family” (CTxT Pty Limited, priority 2017, published 2021)

What was measured:
TIP60-KAT5 [1] = molecular target: T1, TIP60-KAT5 (Homo sapiens, UniProt Q92993); experiment: Acetyltransferase biochemical assay (AlphaScreen), KAT5; settings: Table 1 (TIP60-KAT5); 0.4 μM Acetyl coenzyme A, histone H4, 10 nM enzyme
T1 construct: encoding amino acid residues 2 to 461 (Uniprot Q92993-2) of human KAT5 isoform; made in house; host or cells: E. coli BL21 DE3

MOZ-KAT6A [2] = molecular target: T2, MOZ-KAT6A (Homo sapiens, UniProt Q92794, A567V); experiment: Acetyltransferase biochemical assay (AlphaScreen), KAT6A; settings: Table 2 (MOZ-KAT6A); 10 μM Acetyl coenzyme A, histone H3.1, 5 nM enzyme
T2 construct: encoding amino acid residues 507 to 778 (Uniprot Q92794-1) of human KAT6A; made in house; host or cells: E. coli BL21 DE3

HBO-KAT7 [3] = molecular target: T3, HBO-KAT7 (Homo sapiens, UniProt O95251); experiment: Acetyltransferase biochemical assay (AlphaScreen), KAT7; settings: Table 3 (HBO-KAT7); 0.4 μM Acetyl coenzyme A, histone H3.1, 40 nM enzyme
T3 construct: encoding amino acid residues 325 to 611 (Uniprot 095251-1) of human KAT7; made in house; host or cells: E. coli BL21 DE3 RIL

MOZ-KAT6A [4] = molecular target: T2, MOZ-KAT6A; experiment: Revised Acetyltransferase Biochemical Assay, KAT6A; settings: Table 8 (MOZ-KAT6A), 1 μM Acetyl coenzyme A
TIP60-KAT5 [5] = molecular target: T1, TIP60-KAT5; experiment: Revised Acetyltransferase Biochemical Assay, KAT5; settings: 10 nM KAT5, 1 μM AcCoA, 100 nM histone H4, 90 min
MOF-KAT8 [6] = molecular target: T4, MOF-KAT8 (Homo sapiens, UniProt Q9H7Z6); experiment: Acetyltransferase biochemical assay (AlphaScreen), KAT8; settings: Table 4 (MOF-KAT8); 0.4 μM Acetyl coenzyme A, histone H4, 20 nM enzyme
T4 sequence (Q9H7Z6 177-447): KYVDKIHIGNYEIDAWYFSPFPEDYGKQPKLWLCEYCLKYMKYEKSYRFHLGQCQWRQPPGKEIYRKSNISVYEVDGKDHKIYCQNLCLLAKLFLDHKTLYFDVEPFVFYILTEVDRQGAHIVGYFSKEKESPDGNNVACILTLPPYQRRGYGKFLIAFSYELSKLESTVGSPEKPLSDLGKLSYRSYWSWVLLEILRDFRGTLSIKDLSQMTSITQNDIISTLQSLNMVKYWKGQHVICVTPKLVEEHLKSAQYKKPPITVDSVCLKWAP

HBO-KAT7 [7] = molecular target: T3, HBO-KAT7; experiment: Revised Acetyltransferase Biochemical Assay, KAT7; settings: Table 9 (HBO-KAT7), 1 μM Acetyl coenzyme A
MOF-KAT8 [8] = molecular target: T4, MOF-KAT8; experiment: Revised Acetyltransferase Biochemical Assay, KAT8
[9] = test system: histone H2A.Z Lysine 7 acetylation (TIP60 mediated) in U2OS cells; experiment: H2A.Z Lysine 7 Acetylation Biomarker Assay (384-well, U2OS); assay type: cell-based; settings: Homo sapiens, serum free medium, 24 hours incubation
Protocol: Compounds may be tested for their ability to inhibit the histone H2A.Z Lysine 7 acetylation marker (which is TIP60 mediated) in the following assay:
The cell line U2OS was seeded at a density of 3,000 cells per well in 384-well optical quality tissue culture plates in RPMI medium supplemented with 10% foetal bovine serum and 10 mM Hepes. The cells were allowed to adhere for 24 hours under standard culture conditions (37 degree Celsius, 5% CO2). At the end of this period the cells were washed with serum free medium. […] After incubation for 24 hours, the cells were fixed with 4% formaldehyde in PBS for 15 minutes at room temperature, washed with phosphate buffer saline and blocked with blocking buffer containing 0.2% TritonX100 and 2% BSA. Anti-H2A.ZK7ac specific antibody (Abcam) in blocking buffer was added and incubated overnight at 4 degree Celsius. After washing, a secondary antibody labelled with AlexaFluor 488 dye (ThermoFisher) and Hoechst 33342 (1 μg/mL, Life Technologies) were added for 2 hours incubation at room temperature. Plates were washed and read on a PerkinElmer Opera HCS high content imaging platform. Using a Columbus image analysis pipeline, individual nuclei were located by Hoechst 33342 stain and the acetylation level was calculated from the AlexaFluor 488-related intensity in the same area. The resulting mean intensity per cell was converted to percent inhibition relative to controls on the same plate and the data fitted against a four-parameter logistic model to determine the 50% inhibitory concentration (IC50).

T2 sequence (Q92794 507-778 A567V limits assumed): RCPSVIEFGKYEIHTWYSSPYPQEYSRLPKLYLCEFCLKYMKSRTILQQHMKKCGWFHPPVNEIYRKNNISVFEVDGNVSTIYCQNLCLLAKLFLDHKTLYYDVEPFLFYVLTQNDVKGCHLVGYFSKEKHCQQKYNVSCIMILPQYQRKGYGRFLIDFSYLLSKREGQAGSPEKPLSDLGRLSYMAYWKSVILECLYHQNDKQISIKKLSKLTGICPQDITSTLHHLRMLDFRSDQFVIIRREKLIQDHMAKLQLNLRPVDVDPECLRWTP
T1 sequence (Q92993 2-461 isoform Q92993-2): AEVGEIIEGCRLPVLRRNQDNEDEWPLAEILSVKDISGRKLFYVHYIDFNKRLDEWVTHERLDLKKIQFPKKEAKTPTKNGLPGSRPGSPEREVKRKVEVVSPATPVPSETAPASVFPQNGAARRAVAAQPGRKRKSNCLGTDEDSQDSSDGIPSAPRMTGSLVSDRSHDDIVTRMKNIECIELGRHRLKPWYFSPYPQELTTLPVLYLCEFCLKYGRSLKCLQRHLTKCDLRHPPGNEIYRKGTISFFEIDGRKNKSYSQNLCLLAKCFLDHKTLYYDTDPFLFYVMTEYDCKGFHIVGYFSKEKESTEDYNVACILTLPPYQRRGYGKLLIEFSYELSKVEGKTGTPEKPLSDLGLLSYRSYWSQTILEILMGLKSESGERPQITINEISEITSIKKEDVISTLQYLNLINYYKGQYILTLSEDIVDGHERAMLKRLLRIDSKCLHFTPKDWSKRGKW
T3 sequence (O95251 with tags, fused parts or gaps): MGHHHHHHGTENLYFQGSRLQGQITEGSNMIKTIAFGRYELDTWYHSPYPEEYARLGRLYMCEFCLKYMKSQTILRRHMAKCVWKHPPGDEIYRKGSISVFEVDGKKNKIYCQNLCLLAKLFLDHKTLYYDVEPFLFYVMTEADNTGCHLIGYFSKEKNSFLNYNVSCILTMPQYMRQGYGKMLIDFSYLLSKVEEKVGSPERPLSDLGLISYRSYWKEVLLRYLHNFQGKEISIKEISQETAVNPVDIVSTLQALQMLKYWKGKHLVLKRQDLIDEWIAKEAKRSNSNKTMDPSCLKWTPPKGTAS

IC50 (TIP60-KAT5 [1])	IC50 (MOZ-KAT6A [2])	IC50 (HBO-KAT7 [3])	IC50 (MOZ-KAT6A [4])	IC50 (TIP60-KAT5 [5])	IC50 (MOF-KAT8 [6])	IC50 (HBO-KAT7 [7])	IC50 (MOF-KAT8 [8])	IC50 [9]	Compound
1.17 µM	0.667 µM	2.04 µM	0.069 µM	0.493 µM	27.7 µM				O=C(NCC(c1ccccc1)c1ncco1)C1=Nc2ccc(OC(F)(F)F)cc2S(=O)(=O)N1 (stereo not drawn) [Example 5, N-(2-(Oxazol-2-yl)-2-phenylethyl)-7-(trifluoromethoxy)-2H-benzo[e][1,2,4]thiadiazine-3-carboxamide 1,1-dioxide]
11.7 µM	2.8 µM	11.9 µM	0.316 µM	5.92 µM	> 125 µM	1.18 µM	81.6 µM		O=C(NCCc1ccccc1-c1ncco1)C1=Nc2ccccc2S(=O)(=O)N1 [Example 7, N-(2-(Oxazol-2-yl)phenethyl)-2H-benzo[e][1,2,4]thiadiazine-3-carboxamide1,1-dioxide]
7.16 µM	0.127 µM	0.141 µM	0.11 µM	5.4 µM	69.6 µM	0.583 µM			O=C(NCC(c1ccccc1)c1ncco1)C1=Nc2ccc(C(=O)O)cc2S(=O)(=O)N1 (stereo not drawn) [Example 24, 3-((2-(Oxazol-2-yl)-2-phenylethyl)carbamoyl)-2H-benzo[e][1,2,4]thiadiazine-7-carboxylic Acid 1,1-dioxide]
6.95 µM	0.126 µM	6.78 µM	0.047 µM	3.78 µM	89.6 µM	0.551 µM	> 125 µM		CN(C)C(=O)c1ccc2c(c1)S(=O)(=O)NC(C(=O)NCC(c1ccccc1)c1ncco1)=N2 (stereo not drawn) [Example 33, N^7,N^7-Dimethyl-N^3-(2-(oxazol-2-yl)-2-phenylethyl)-2H-benzo[e][1,2,4]thiadiazine-3,7-dicarboxamide 1,1-dioxide]
2.39 µM	0.243 µM	1.99 µM	0.014 µM	0.266 µM		0.086 µM	71.6 µM		CC(=O)c1ccc2c(c1)S(=O)(=O)NC(C(=O)NCC(c1ccccc1)c1ncco1)=N2 (stereo not drawn) [Example 43, 7-acetyl-N-(2-(oxazol-2-yl)-2-phenylethyl)-2H-benzo[e][1,2,4]thiadiazine-3-carboxamide 1,1-dioxide]
14.5 µM	3.81 µM	0.462 µM	0.108 µM	7.21 µM		0.601 µM	16.5 µM		O=C(NCC(c1ccccc1)c1ccccc1)C1=Nc2ccccc2S(=O)(=O)N1 [Example 68]
56.6 µM	1.72 µM		0.308 µM	14.1 µM		1.15 µM	> 125 µM		O=C(NCC(c1ccccc1)n1cccn1)C1=Nc2ccccc2S(=O)(=O)N1 (stereo not drawn) [Example 75]
16.7 µM	3.74 µM	4.56 µM	0.203 µM	4.54 µM		3.53 µM	> 125 µM		O=C(NCCc1ccccc1)C1=Nc2ccc(Br)cc2S(=O)(=O)N1 [Example 78]
7.82 µM	9.19 µM				> 125 µM				O=C(NCC(O)c1ccccc1)C1=Nc2ccc(Br)cc2S(=O)(=O)N1 (stereo not drawn) [Example 82]
1.17 µM	2.7 µM	1.33 µM	0.096 µM	0.521 µM	39.4 µM	0.787 µM	42.4 µM		COc1ccccc1CCNC(=O)C1=Nc2ccc(I)cc2S(=O)(=O)N1 [Example 86]
4.47 µM	8.93 µM	12 µM			114 µM				O=C(NCC(O)c1ccccc1)C1=Nc2ccc(I)cc2S(=O)(=O)N1 (stereo not drawn) [Example 87]
1.19 µM		0.659 µM			47 µM				COC(CNC(=O)C1=Nc2ccc(I)cc2S(=O)(=O)N1)c1ccccc1 (stereo not drawn) [Example 88]
94.7 µM	1.17 µM	3.17 µM	0.149 µM	13.3 µM		1.11 µM	> 125 µM		O=C(NCC(c1ccccc1)c1ncco1)C1=Nc2cccnc2S(=O)(=O)N1 (stereo not drawn) [Example 96]
0.954 µM	0.861 µM	0.529 µM			> 125 µM				O=C(NCCc1ccccc1OC(F)(F)F)C1=Nc2ccc(Br)cc2S(=O)(=O)N1 [Example 114]
4.44 µM	2.26 µM				56.7 µM				O=C(NCCc1ccccc1O)C1=Nc2ccc(Br)cc2S(=O)(=O)N1 [Example 116]
2.17 µM	0.149 µM	3.32 µM	0.024 µM	0.648 µM		0.72 µM	15.7 µM		O=C(NCC(c1ccccc1)c1ncco1)C1=Nc2ccc(-c3nccs3)cc2S(=O)(=O)N1 (stereo not drawn) [Example 134]
			0.031 µM	6.02 µM	43.1 µM	1.77 µM	> 125 µM		O=C(NCC(c1ccc(F)cc1)c1ncco1)C1=Nc2ccc(Cl)cc2S(=O)(=O)N1 (stereo not drawn) [Example 165]
			0.143 µM	13.3 µM	3.75 µM	1.63 µM	> 125 µM		Cc1ccc(C(CNC(=O)C2=Nc3ccc(Cl)cc3S(=O)(=O)N2)c2ncco2)cc1 (stereo not drawn) [Example 170]
		0.051 µM	0.011 µM	0.651 µM	39.1 µM	0.161 µM	30.4 µM		O=C(NCC(c1ccccc1)c1ccccn1)C1=Nc2ccc(Br)cc2S(=O)(=O)N1 (stereo not drawn) [Example 173]
		7.49 µM	0.573 µM	15.3 µM	> 125 µM	4.15 µM			O=C(NCC(c1ncco1)c1ccccc1I)C1=Nc2ccccc2S(=O)(=O)N1 (stereo not drawn) [Example 174, N-(2-(2-iodophenyl)-2-(oxazol-2-yl)ethyl)-2H-benzo[e][1,2,4]thiadiazine-3-carboxamide 1,1-dioxide]
			0.043 µM	0.919 µM		0.243 µM		> 40 µM	CS(=O)(=O)c1ccc2c(c1)S(=O)(=O)NC(C(=O)NCC(c1ccccc1)c1ncco1)=N2 (stereo not drawn) [Example 191]
			0.153 µM	16.8 µM	> 125 µM	9.41 µM	> 125 µM		N#Cc1ccccc1C(CNC(=O)C1=Nc2ccccc2S(=O)(=O)N1)c1ncco1 (stereo not drawn) [Example 218, N-(2-(2-Cyanophenyl)-2-(oxazol-2-yl)ethyl)-2H-benzo[e][1,2,4]thiadiazine-3-carboxamide 1,1-dioxide]
			3.59 µM	> 125 µM	> 125 µM	105 µM	> 125 µM		COC(=O)c1ccccc1C(CNC(=O)C1=Nc2ccccc2S(=O)(=O)N1)c1ncco1 (stereo not drawn) [Example 219, Methyl 2-(2-(1,1-dioxido-2H-benzo[e][1,2,4]thiadiazine-3-carboxamido)-1-(oxazol-2-yl)ethyl)benzoate]
			0.082 µM	1.01 µM		0.948 µM		> 40 µM	O=C(NCCc1ccccc1-n1ccnn1)C1=Nc2ccc(I)cc2S(=O)(=O)N1 [Example 241, N-(2-(1H-1,2,3-triazol-1-yl)phenethyl)-7-iodo-2H-benzo[e][1,2,4]thiadiazine-3-carboxamide 1,1-dioxide]
			12.3 µM	39.9 µM	82.5 µM	77.3 µM			COC(=O)NC(CNC(=O)C1=Nc2ccccc2S(=O)(=O)N1)C1CCCCC1 (stereo not drawn) [Example 243, methyl (1-cyclohexyl-2-(1,1-dioxido-2H-benzo[e][1,2,4]thiadiazine-3-carboxamido)ethyl)carbamate]
